Laboratory results reported in patent publication US6703376B2, “Use of uridine triphosphates and related compounds for the prevention and treatment of pneumonia in immobilized patients” (Inspire Pharmaceuticals, Inc., priority 1996, dated 2004).
Like-named read-outs stand apart in the source and are kept apart here.

Legend:
[1] = test system: conscious adult ewes; assay: Trachael mucus velocity (TMV) study, fluoroscopy of radiopaque disks; format: in vivo, sheep; details: for maximal effect on tracheal mucus velocity: 400 μmole (4 ml of 10^−1M) nebulized, mean±standard error, n=6, 15 min after administration; for effect on tracheal mucus velocity: doses 4 to 400 μmole; for effect on tracheal mucus velocity / duration of significant effects on TMV after administration / time of maximal effect on TMV after administration: nebulized; for duration of significant effects on TMV after administration: highest dose (400 μmole); for time of maximal effect on TMV after administration: adult ewes
Source text: The effects of UTP and U2P4 on trachael mucus velocity (TMV) were studied using the following procedures: The nasal passages of conscious adult ewes were anesthetized with a 2% lidocaine solution. After local anesthesia was produced, a modified endotracheal tube 7.5 mm was placed such that the cuff was just below the vocal cords (verified by fluoroscopy). Inspired air was warmed and humidified. The cuff of the endotracheal tube was inflated only during administation of the test compound to minimize possible impairment of TMV by the cuff. Test compounds were administered by nebulization in a volume of 4 mL over a period of 10-12 min. TMV was measured by fluroscopy. Ten to twenty radiopaque disks (Teflon®/bismuth trioxide; 1 mm diameter, 0.8 mm thick, weighing 1.8 mg) were introduced into the trachea through a modified suction catheter with a puff of compressed air (3-4 L/min). Velocities of the individual disks were recorded on videotape from a portable image intensifier unit. Individual disk velocities were calculated by measuring the distance traveled by each disk during a 1 min observation period. Values reported are the means of the individual disk velocities. A collar was worn by the sheep which was used as a standard to correct for magnification errors inherent in the fluoroscope.

[2] = test system: healthy adult ewes; assay: Mucociliary clearance study, 99mTc-HSA clearance by gamma camera; format: in vivo, sheep; details: 400 μmole nebulized; initial results n=2; compared to saline control
Description: In this study healthy adult ewes were given 99 mTc-labeled human serum albumin (99 mTc-HSA) via a nebulized aerosol. The 99 mTC-HSA (20 mCi) was administered over 5 min through a nasotracheal tube introduced under local anesthesia with 2% lidocaine. After administration of the 99 mTc-HSA, the animals were given a test compound: either UTP or U2P4. Test compounds were administered by nebulization in a volume of 4 mL over a period of 10-12 min. The test compounds were given at a dose of 400 μmole. After the administration of the test compound, the animals were extubated. Clearance of the radiolabeled particles was monitored with a gamma camera. Measurements were made at 0, 5, 10, 15, 20, 25, 30, 35, 40, 45, 50, 55, 60, […], 90, 105 and 120 min.

[3] = test system: normal volunteers; details: acute; cited from earlier work
[4] = test system: anesthetized and ventilated dogs; details: cited from earlier work
[5] = test system: human nasal epithelial cells; details: cited from earlier work
[6] = test system: cultured human epithelial cells; details: cells from normal adult humans and CF patients; cited from earlier work
[7] = test system: goblet cells in human airway epithelial explants; details: tissues from healthy individuals and patients with CF; cited from earlier work

## O=c1ccn([C@@H]2O[C@H](COP(=O)(O)OP(=O)(O)OP(=O)(O)O)[C@@H](O)[C@H]2O)c(=O)[nH]1 [UTP, uridine 5′-triphosphate]
[1]
  maximal effect on tracheal mucus velocity: 125±7 % of baseline
  effect on tracheal mucus velocity: significant dose-related effects
  duration of significant effects on TMV after administration: up to 4 h
  time of maximal effect on TMV after administration: 15 min
[2]
  clearance of radiolabeled particles (99mTc-HSA): promote clearance of the radiolabeled particles
[3]
  improvement of mucociliary clearance (MCC): 2.5 fold
[4]; aerosol, 10^−2 M and 10^−1 M in nebulizer
  effects on peak inspiratory airway pressure, mean pulmonary artery pressure, heart rate, cardiac output, thoracic aortic pressure, electrocardiogram, arterial blood gases: no significant effects
[4]; intravenous, sequential doses 0.1, 1, 3 and 5 mmoles/kg infused over 10 minutes
  changes in mean pulmonary artery pressure, heart rate, cardiac output, mean arterial pressure: no significant changes
[5]; cultured nasal epithelial cells from cystic fibrosis (CF) patients
  Cl- secretion: This response was also observed
[5]; normal human nasal epithelial cells, apical application
  Cl- secretion: increased Cl- secretion in a concentration-dependent manner
[6]
  cilia beat frequency: increase in cilia beat frequency
[7]
  mucin secretion by goblet cells: increase the rate and total amount of mucin secretion

## O=c1ccn([C@@H]2O[C@H](COP(=O)(O)OP(=O)(O)OP(=O)(O)OP(=O)(O)OC[C@H]3O[C@@H](n4ccc(=O)[nH]c4=O)[C@H](O)[C@@H]3O)[C@@H](O)[C@H]2O)c(=O)[nH]1 [U2P4, P1,P4-di(uridine-5′)tetraphosphate]
[1]
  maximal effect on tracheal mucus velocity: 144±9 % of baseline
  effect on tracheal mucus velocity: significant dose-related effects
  duration of significant effects on TMV after administration: ≤ 2 h
  time of maximal effect on TMV after administration: 15 min
[2]
  clearance of radiolabeled particles (99mTc-HSA): promote clearance of the radiolabeled particles
